# Test results: patent EP3221371B1, “MONOLITHS” (Monolythix, Inc., priority 2014, dated 2016)
# System: fluorescently-labeled cell wall material
# Assay: EnzChek Lysozyme Assay of covalently grafted lysozyme
# Assay type: biochemical
# Settings: one hour at 37 °C, compared with lysozyme standard dilution series (Figure 5)
# Protocol: After covalently grafting lysozyme to a small block of carboxy monolith polymeric matrix, the sample was placed into a solution of fluorescently-labeled cell wall material (EnzChek® Lysozyme Assay Kit) and incubated for one hour at 37 °C in a plate reader, along with a lysozyme standard dilution series.
# A fresh solution of 160 mg/mL EDAC stock in dry DMSO was prepared. A lysozyme mix was prepared from 20 µL of a 10 mg/mL solution of lysozyme in 1x PBS, 28 µL of a 200 mM MES solution at pH 7.0, and 15 µL water.
# 7 µL 160 mg/mL EDAC was spotted onto a single 20 mg disc formed from monolith material, (1:2:1 TEGDMA:EGDMA:HEMA plus 2.0% MAA). The prepared lysozyme mix (63 µL) was then added and the sample incubated at room temperature for 1 h. A glycine solution (10 µl; 30 mg/mL solution in 100 mM MES solution at pH 7.0) was then added and the sample incubated for 15 min at room temperature. The disc was then rinsed in water and stored at 4 °C until use.
# To test the activity of the immobilized enzyme, a lysozyme-coupled disc and an untreated control disc were each cut into equal 1/8 size pie-shaped segments. Two pieces of each were then added to two wells of a microwell plate and lysozyme substrate was added. […] Fluorescence was read at regular intervals to determine the extent of carbohydrate breakdown and consequent lysozyme activity.
substance,measurement,value
lysozyme chip: Lysozyme covalently grafted with EDAC to carboxy monolith disc (1:2:1 TEGDMA:EGDMA:HEMA plus 2.0% MAA),final fluorescence signal intensity,greater than the highest standard
